The values below are quoted from earlier work in US20090269770A1, “METHODS FOR EVALUATION PROGNOSIS AND FOLLOW-UP OF DRUG TREATMENT OF PSYCHIATRIC DISEASES OR DISORDERS” (priority 2008, published 2009).

The test system of this series is negative symptoms of schizophrenia. Particulars: non-serotonergic antidepressant add-on (Silver and Shmugliakov, 1998); cited from earlier work.

Take `CNCCCC12CCC(c3ccccc31)c1ccccc12` [maprotaline]: the “effect on negative symptoms” value is reported as “did not improve negative symptoms”.
